Experimental data taken from ChEMBL document CHEMBL2057086, “3-Bromo-3-deazaneplanocin and 3-bromo-3-deazaaristeromycin: synthesis and antiviral activity” (Bioorg Med Chem Lett, 2012).
Active and inactive are the calls of the source. The calls are words filed in the database; no cut-off is given here.

Assays:
[1] = test system: Mammalian orthoreovirus 1; experiment: Antiviral activity against Reovirus 1 infected in african green monkey Vero cells assessed as reduction of viral replication; format: functional, organism-based
[2] = test system: Coxsackievirus B4; experiment: Antiviral activity against Coxsackievirus B4 virus infected in african green monkey Vero cells assessed as reduction of viral replication; format: functional, organism-based
[3] = test system: Sindbis virus; experiment: Antiviral activity against Sindbis virus infected in african green monkey Vero cells assessed as reduction of viral replication; format: functional, organism-based
[4] = test system: Feline coronavirus; experiment: Antiviral activity against Feline coronavirus assessed as reduction of viral replication; format: functional, organism-based
[5] = test system: Human alphaherpesvirus 2; experiment: Antiviral activity against HSV-2 infected in HEL assessed as reduction of viral replication; format: functional, organism-based
[6] = test system: Human alphaherpesvirus 1; experiment: Antiviral activity against HSV-1 infected in HEL assessed as reduction of viral replication; format: functional, organism-based
[7] = Selectivity index, ratio of CC50 for african green monkey Vero cells to EC50 for Pichinde virus; format: toxicity, cell-based; details: read-out: Selectivity Index
[8] = Selectivity index, ratio of CC50 for african green monkey Vero cells to EC50 for Junin virus; format: toxicity, cell-based; details: read-out: Selectivity Index
[9] = Selectivity index, ratio of CC50 for african green monkey Vero cells to EC50 for Dengue virus; format: toxicity, cell-based; details: read-out: Selectivity Index
[10] = Selectivity index, ratio of CC50 for human Akata cells to EC50 for Epstein-Barr virus; format: toxicity, cell-based; details: read-out: Selectivity Index
[11] = Selectivity index, ratio of CC50 for cat CRFK cells to EC50 for Feline herpesvirus; format: toxicity, cell-based; details: read-out: Selectivity Index
[12] = test system: West Nile virus; experiment: Antiviral activity against West Nile virus infected in african green monkey Vero cells assessed as reduction of viral replication; format: functional, organism-based
[13] = test system: Cowpox virus; experiment: Antiviral activity against Cowpox virus infected in HFF cells assessed as reduction of viral replication; format: functional, organism-based
[14] = test system: Hepatitis B virus; experiment: Antiviral activity against HBV infected in human HepG2(2.2.15) cells assessed as reduction of viral replication; format: functional, organism-based
[15] = test system: Venezuelan equine encephalitis virus; experiment: Antiviral activity against Venezuelan equine encephalitis virus infected in african green monkey Vero cells assessed as reduction of viral replication; format: functional, organism-based
[16] = Selectivity index, ratio of CC50 for african green monkey Vero 76 cells to EC50 for Tacaribe virus; format: toxicity, cell-based; details: read-out: Selectivity Index
[17] = Selectivity index, ratio of CC50 for african green monkey Vero 76 cells to EC50 for Punta Toro virus; format: toxicity, cell-based; details: read-out: Selectivity Index
[18] = Selectivity index, ratio of CC50 for african green monkey Vero 76 cells to EC50 for Rift Valley fever virus; format: toxicity, cell-based; details: read-out: Selectivity Index
[19] = Cytotoxicity against cat CRFK cells assessed as reduction of cell viability; format: cell-based, Felis catus
[20] = Cytotoxicity against african green monkey Vero cells assessed as minimum compound concentration required to cause microscopically detectable alteration of normal cell morphology; format: cell-based; details: chlorocebus sabaeus, read-out: Activity
[21] = Cytotoxicity against human Akata cells assessed as reduction of cell viability; format: cell-based
[22] = Cytotoxicity against human HeLa assessed as minimum compound concentration required to cause microscopically detectable alteration of normal cell morphology; format: cell-based; details: HeLa cells, read-out: Activity
[23] = Cytotoxicity against african green monkey Vero cells assessed as reduction of cell viability; format: cell-based; details: chlorocebus sabaeus
[24] = Cytotoxicity against african green monkey Vero 76 cells assessed as reduction of cell viability; format: cell-based; details: chlorocebus sabaeus
[25] = test system: Felid alphaherpesvirus 1; experiment: Antiviral activity against Feline herpesvirus infected in cat CRFK cells assessed as reduction of viral replication; format: functional, organism-based; details: Felid alphaherpesvirus 1, CRFK
[26] = test system: Human respirovirus 3; experiment: Antiviral activity against Parainfluenza-3 virus infected in african green monkey Vero cells assessed as reduction of viral replication; format: functional, organism-based; details: Human respirovirus 3, Vero
[27] = test system: Human gammaherpesvirus 4; experiment: Antiviral activity against Epstein-Barr virus infected in human Akata cells assessed as reduction of viral replication; format: functional, organism-based; details: human gammaherpesvirus 4, Akata
[28] = test system: Vesicular stomatitis virus; experiment: Antiviral activity against Vesicular stomatitis virus infected in human HeLa cells assessed as reduction of viral replication; format: functional, organism-based
[29] = test system: Vaccinia virus; experiment: Antiviral activity against Vaccinia virus infected in human HeLa cells assessed as reduction of viral replication; format: functional, organism-based; details: Orthopoxvirus vaccinia
[30] = test system: Dengue virus; experiment: Antiviral activity against Dengue virus infected in african green monkey Vero cells assessed as reduction of viral replication; format: functional, organism-based
[31] = test system: Junin virus; experiment: Antiviral activity against Junin virus infected in african green monkey Vero cells assessed as reduction of viral replication; format: functional, organism-based; details: Mammarenavirus juninense
[32] = test system: Pichinde virus; experiment: Antiviral activity against Pichinde virus infected in african green monkey Vero cells assessed as reduction of viral replication; format: functional, organism-based
[33] = test system: Tacaribe virus; experiment: Antiviral activity against Tacaribe virus infected in african green monkey Vero 76 cells assessed as reduction of viral replication; format: functional, organism-based; details: Mammarenavirus tacaribeense
[34] = test system: Punta Toro virus; experiment: Antiviral activity against Punta Toro virus infected in african green monkey Vero 76 cells assessed as reduction of viral replication; format: functional, organism-based
[35] = test system: Rift Valley fever virus; experiment: Antiviral activity against Rift Valley fever virus infected in african green monkey Vero 76 cells assessed as reduction of viral replication; format: functional, organism-based
[36] = Selectivity index, ratio of CC50 for MDCK cells to EC50 for Influenza B virus; format: toxicity, cell-based; details: dog, read-out: Ratio CC50/EC50
[37] = Selectivity index, ratio of CC50 for MDCK cells to EC50 for Influenza A virus H5N1; format: toxicity, cell-based; details: dog, read-out: Ratio CC50/EC50
[38] = Selectivity index, ratio of CC50 for MDCK cells to EC50 for Influenza A virus H3N2; format: toxicity, cell-based; details: dog, read-out: Ratio CC50/EC50
[39] = Selectivity index, ratio of CC50 for MDCK cells to EC50 for Influenza A virus H1N1; format: toxicity, cell-based; details: dog, read-out: Ratio CC50/EC50
[40] = Cytotoxicity against MDCK cells assessed as reduction of cell viability; format: cell-based, Canis lupus familiaris; details: dog
[41] = test system: Influenza B virus; experiment: Antiviral activity against Influenza B virus infected in MDCK cells assessed as reduction of viral replication; format: functional, organism-based
[42] = test system: Influenza A virus; experiment: Antiviral activity against Influenza A virus H5N1 infected in MDCK cells assessed as reduction of viral replication; format: functional, organism-based
[43] = test system: Influenza A virus; experiment: Antiviral activity against Influenza A virus H3N2 infected in MDCK cells assessed as reduction of viral replication; format: functional, organism-based
[44] = test system: Influenza A virus; experiment: Antiviral activity against Influenza A virus H1N1 infected in MDCK cells assessed as reduction of viral replication; format: functional, organism-based
[45] = test system: SARS-CoV; experiment: Antiviral activity against SARS coronavirus infected in african green monkey Vero cells assessed as reduction of viral replication; format: functional, organism-based; details: Severe acute respiratory syndrome-related coronavirus
[46] = test system: Respiratory syncytial virus; experiment: Antiviral activity against Respiratory syncytial virus infected in […] cells assessed as reduction of viral replication; format: functional, organism-based
[47] = test system: Hepatitis C virus; experiment: Antiviral activity against Hepatitis C virus infected in human AVA5 cells assessed as reduction of viral replication; format: functional, organism-based; details: Hepacivirus hominis
[48] = Selectivity index, ratio of CC50 for HEL to EC50 Cytomegalovirus
[49] = Selectivity index, ratio of CC50 for african green monkey Vero cells to EC50 for Measles virus; format: toxicity, cell-based; details: read-out: Ratio CC50/EC50
[50] = test system: Cytomegalovirus; experiment: Antiviral activity against Cytomegalovirus infected in HEL assessed as reduction of viral replication; format: functional, organism-based; details: Human betaherpesvirus 5
[51] = Selectivity index, ratio of CC50 for african green monkey Vero cells to EC50 for Yellow fever virus; format: toxicity, cell-based; details: read-out: Ratio CC50/EC50
[52] = test system: Measles morbillivirus; experiment: Antiviral activity against Measles virus infected in african green monkey Vero cells assessed as reduction of viral replication; format: functional, organism-based
[53] = test system: Yellow fever virus; experiment: Antiviral activity against Yellow fever virus infected in african green monkey Vero cells assessed as reduction of viral replication; format: functional, organism-based
[54] = Selectivity index, ratio of minimum compound concentration required to cause microscopically detectable alteration of normal cell morphology for human HeLa cells to EC50 for Vaccinia virus; format: toxicity, cell-based; details: read-out: Selectivity Index
[55] = Cytotoxicity against HEL assessed as reduction of cell viability; format: cell-based; details: human, HEL cells

Nc1ncc(Br)c2c1ncn2[C@@H]1C=C(CO)[C@@H](O)[C@H]1O
Activity [1]: inactive | Activity [2]: inactive | Activity [3]: inactive | Activity [4]: inactive | Activity [5]: inactive | Activity [6]: inactive | selectivity ratio [7]: 24 | selectivity ratio [8]: 160 | selectivity ratio [9]: 57 | selectivity ratio [10]: < 4.3 | selectivity ratio [11]: 470 | Activity [12]: inactive | Activity [13]: inactive | Activity [14]: inactive | Activity [15]: inactive | selectivity ratio [16]: > 2000 | selectivity ratio [17]: 140 | selectivity ratio [18]: 250 | CC50 [19]: 94000 nM | MCC [20]: > 100 µM | CC50 [21]: 130 nM | MCC [22]: ≥ 100 µM | CC50 [23]: 15200 nM | CC50 [24]: 23200 nM | EC50 [25]: 200 nM | EC50 [26]: 500 nM | EC50 [27]: > 30 nM | EC50 [28]: 400 nM | EC50 [29]: 500 nM | EC50 [30]: 2900 nM | EC50 [31]: 94 nM | EC50 [32]: 1200 nM | EC50 [33]: < 94 nM | EC50 [34]: 250 nM | EC50 [35]: < 94 nM | selectivity ratio [36]: < 7 | selectivity ratio [37]: > 310 | selectivity ratio [38]: > 190 | selectivity ratio [39]: > 2340 | CC50 [40]: 1100 nM | EC50 [41]: > 160 nM | EC50 [42]: 940 nM | EC50 [43]: 1550 nM | EC50 [44]: < 94 nM

Nc1ncc(Br)c2c1ncn2[C@@H]1C[C@H](CO)[C@@H](O)[C@H]1O
Activity [45]: inactive | Activity [46]: inactive | Activity [47]: inactive | Ratio CC50/EC50 [48]: 23 | selectivity ratio [49]: 4.3 | EC50 [50]: 3500 nM | selectivity ratio [51]: 9.7 | EC50 [52]: 16000 nM | EC50 [53]: 19000 nM | selectivity ratio [9]: 2 | selectivity ratio [54]: > 1.3 | Activity [12]: inactive | Activity [15]: inactive | selectivity ratio [16]: 7.9 | selectivity ratio [18]: > 5 | MCC [22]: > 300 µM | CC50 [23]: 70000 nM | CC50 [24]: > 79000 nM | EC50 [29]: 230000 nM | EC50 [30]: 93000 nM | EC50 [33]: 9900 nM | EC50 [35]: 58300 nM | selectivity ratio [36]: > 340 | selectivity ratio [37]: > 260 | CC50 [40]: > 290000 nM | EC50 [41]: 840 nM | EC50 [42]: 1140 nM | EC50 [43]: > 290000 nM | EC50 [44]: > 290000 nM | CC50 [55]: 80000 nM
